Assay [1] addresses T1, Stimulator of interferon genes protein (Homo sapiens, UniProt Q86WV6). The assay can be described thus: Activation of STING in human THP-1-Dual cells assessed as induction of type I IFNs by measuring stimulation of IRF pathway incubated for 48 hrs by luciferase reporter gene assay. For orientation: Reporter assays use an easily measured gene product as a stand-in for the process of interest.

Assay [2] concerns the target T1, Stimulator of interferon genes protein. The assay can be described thus: Activation of STING in human THP-1-Dual cells assessed as induction of type I IFNs by measuring stimulation of NF-kappaB pathway incubated for 48 hrs by luciferase reporter gene assay.

T1 sequence (Q86WV6 whole entry): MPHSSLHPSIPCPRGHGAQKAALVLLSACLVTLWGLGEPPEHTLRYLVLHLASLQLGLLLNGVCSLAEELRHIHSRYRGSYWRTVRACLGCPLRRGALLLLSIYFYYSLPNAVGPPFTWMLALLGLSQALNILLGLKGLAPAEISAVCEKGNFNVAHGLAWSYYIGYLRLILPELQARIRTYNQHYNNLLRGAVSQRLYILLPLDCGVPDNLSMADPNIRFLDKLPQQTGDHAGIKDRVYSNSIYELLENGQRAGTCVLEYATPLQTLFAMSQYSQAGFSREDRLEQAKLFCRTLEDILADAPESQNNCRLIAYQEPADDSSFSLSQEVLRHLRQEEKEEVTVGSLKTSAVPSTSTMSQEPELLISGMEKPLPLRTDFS

One may read the EC50 as the concentration giving half of the maximal effect. Regarding `Nc1ncnc2c1ncn2[C@@H]1O[C@@H]2COP(=O)(S)O[C@H]3[C@@H](O)[C@H](n4cnc5c(O)ncnc54)O[C@@H]3COP(=O)(S)O[C@H]2[C@H]1O` (stereo partly specified), the EC50 in assay [1] worked out at 1600 nM; in assay [2], 7.8 µM.
Consider `Nc1ncnc2c1ncn2[C@H]1C[C@@H]2OP(=O)(O)OC[C@H]3O[C@@H](n4cnc5c(O)ncnc54)C[C@@H]3OP(=O)(O)OC[C@H]2O1`, for which the EC50 in assay [2] was found to be 62.3 µM.
With `Nc1ncnc2c1ncn2[C@@H]1O[C@@H]2COP(=O)(O)O[C@H]3[C@@H](F)[C@H](n4cnc5c(O)ncnc54)O[C@@H]3COP(=O)(O)O[C@H]2[C@H]1F`, the EC50 in assay [1] is 1100 nM; in assay [2], 15.4 µM.
On to `Nc1ncnc2c1ncn2[C@@H]1O[C@@H]2COP(=O)(S)O[C@H]3[C@@H](F)[C@H](n4cnc5c(O)ncnc54)O[C@@H]3COP(=O)(S)O[C@H]2[C@H]1F` (stereo partly specified), for which the results for the EC50 in assay [1] and in assay [2] were 300 nM and 1.6 µM, respectively.
On the same counts, the results for `Nc1ncnc2c1ncn2[C@@H]1O[C@@H]2COP(=O)(O)O[C@H]3C[C@H](n4cnc5c(O)ncnc54)O[C@@H]3COP(=O)(O)O[C@H]2[C@H]1F` are 1400 nM and 25.5 µM.
In the case of `Nc1ncnc2c1ncn2[C@H]1C[C@@H]2OP(=O)(O)OC[C@H]3O[C@@H](n4cnc5c(O)ncnc54)[C@H](F)[C@@H]3OP(=O)(O)OC[C@H]2O1`, the EC50 in assay [1] is 2300 nM; in assay [2], 32.3 µM.

The record behind these values is BindingDB's records for doi:10.1021/acs.jmedchem.6b01300 (Invivogen, 2016).
